What was measured:
4T1 = assay: Cell-Titer-Glo Luminescence Cell Viability Assay, UV activated psoralen; type: cell-based, murine; settings: FIG. 14A; psoralen 40 μM; UV light 0, 0.25, 0.5, 1.0 J/cm^2; N=4
Text: (§1) Other assays were used to provide independent complimentary information on cell viability, e.g. Methylene blue staining and ATP-induced Luminescence imaging (Cell-Titer-Glo® Luminescence Cell Viability Assay). The luminescence imaging permitted investigation of the cytotoxicity of psoralen activated directly with a UV lamp, and in the absence of phosphors and x-ray radiation.
(§2) FIG. 14B presents data on CT2A malignant glioma cells, for a range of treatment parameters including variable x-ray dose (0, 0.67 and 1 Gy), phosphor concentration (50 or 100 μg) and psoralen concentration (8-MOP) at 10, 20 and 40 μM respectively. […] N=4 for each cell line at each UV light condition (0, 0.25, 0.5, 1.0 J/cm^2). The psoralen concentration was 40 μM. For FIG. 14B, in CT2A cells, the treatment cytotoxicity increases with X-ray dose (0, 0.67 and 1.00 Gy respectively), concentration of 8-MOP psoralen (10, 20 and 40 μM respectively), and phosphor (50 and 100 μg/ml) respectively (p values shown thereon).

[1] = tested on: KP-B (sarcoma) cell lines; assay: as above; type: cell-based, mice; settings: FIG. 14A; psoralen 40 μM; UV light 0, 0.25, 0.5, 1.0 J/cm^2; N=4
Text: The mouse breast cancer cell line 4T1 was purchased from ATCC. 4T1-HER2 was provided by Dr. Michael Kershaw (Cancer Immunology Program, Peter MacCallum Cancer Centre, Victoria, Australia) and maintained in DMEM with penicillin/streptomycin and 10% FBS The Sarcoma KP-B cell lines were derived from primary tumors LSL-Kras; p53 Flox/Flox mice (45).
as §1, §2

[2] = tested on: CT2A (murine malignant glioma); assay: as above; type: cell-based; settings: FIG. 14A; psoralen 40 μM; UV light 0, 0.25, 0.5, 1.0 J/cm^2; N=4
Text: as §1, §2

4T1-HER2 cells [3] = assay: Methylene blue staining for cell viability; type: cell-based, murine; settings: FIGS. 13C, 13D; individual components; 1 Gy of 80 kVp x-rays; UVADEX 10 uM 8-MOP equivalent, phosphor 25, 50, 100 μg/mL
Text: Methylene blue staining of viable 4T1-HER2 cells confirms that the device works well according to the target parameters identified above. A plate having six (6) wells is subjected to treatment. […] One well (#1) is the control. One well (#2) has phosphor coated with EC and DLC (H100). One well (#3) has phosphor coated with EC (but no DLC). One well (#4) has drug UVADEX but no phosphors. One well (#5) has drug UVADEX and phosphors coated with EC and DLC. One well (#6) has drug UVADEX and phosphors coated with EC and no DLC.
All wells were exposed to the x-ray conditions noted above. […] One added benefit to a dual coating is redundancy in safety of the treatment.
as §1
FIGS. 13A-13D illustrates the efficacy of treatment in-vitro in 4T1-HER2 cells, utilizing a regimen of 1/10-diluted UVADEX (with equivalent of 10 uM 8-MOP), 50 μg/mL phosphor 1 Gy of 80 kVp x-rays. FIG. 13A presents the cell viability data for three treatment conditions: UVADEX alone, phosphors alone, and the combination of UVADEX and phosphors. […]

4T1-HER2 cells [4] = assay: cell viability by Guava flow cytometry (forward scattering); type: cell-based, murine; settings: FIG. 13A; UVADEX alone, 10 μM 8-MOP equivalent; 1 Gy of 80 kVp; p=0.97
Method: (§3) As part of the baseline study, in-vitro studies were conducted on plated cells following standard procedures. Cells were maintained in RPMI-1640 supplemented with 10% fetal bovine serum and L-glutamine from GIBCO (Grand Island, N.Y.) growing in a humidified atmosphere of 5% CO2. After incubation, cells were trypsinized and plated evenly onto twelve 12-well plates for 24 hours. About 20 minutes prior to irradiation, the 12 wells of each plate were exposed to the following combinations of additives: (1) control—cells only with no additives, (2) UVADEX only, (3) phosphors only, (4) UVADEX+ phosphors. Each plate had 12 wells with three wells for each of the four treatment arms. […]
(§4) Two primary flow cytometry analyses were used, both determined at 48 hours after treatment. […] The first analysis evaluated was metabolic cell viability (herein referred to as cell viability) calculated from the number of whole cells per well as determined using forward scattering (FSC). […]
(§5) FIGS. 13A-13D illustrates the efficacy of treatment in-vitro in 4T1-HER2 cells, utilizing a regimen of 1/10-diluted UVADEX (with equivalent of 10 uM 8-MOP), 50 μg/mL phosphor 1 Gy of 80 kVp x-rays. […] In FIG. 13A, cell viability after treatment (10 μM 8-MOP equivalent dilution of UVADEX, 50 μg/mL phosphor, 1 Gy of 80 kVp radiation) as determined by Guava flow cytome cytometry is depicted. […]

4T1-HER2 cells [5] = assay: Annexin V positivity by flow cytometry; type: cell-based, murine; settings: FIG. 13B; either with or without x-ray (p values of 0.90 and 0.09)
Method: as §3, §4, §5

| Structure (SMILES) | viable cells (4T1) | viable cells [1] | viable cells [2] | cell viability by methyl blue staining (4T1-HER2 cells [3]) | effect of addition of radiation on cell viability (4T1-HER2 cells [4]) | apoptotic activity (Annexin V) (4T1-HER2 cells [5]) |
| --- | --- | --- | --- | --- | --- | --- |
| O=c1ccc2cc3ccoc3cc2o1 [psoralen] | reduce viable cells | reduce viable cells | reduce viable cells | – | – | – |
| COc1c2occc2cc2ccc(=O)oc12 [UVADEX, 8-methoxypsoralen] | – | – | – | little effect | no significant effect on cell viability | negligible apoptotic activity |
